This is an account of results in ChEMBL document CHEMBL2380265, “Inhibitors of the p53/hdm2 protein-protein interaction-path to the clinic” (Bioorg Med Chem Lett, 2013).

pIC50, pKd: −log10 of the molar value. Where a SMILES comes first, the peptide text is derived from it. [ ]: non-standard residue; d: D form. Trp(6-Cl) = N[C@@H](Cc1c[nH]c2cc(Cl)ccc12)C(=O)O; Pmp = N[C@@H](Cc1ccc(CP(=O)(O)O)cc1)C(=O)O; Ac3c = NC1(C(=O)O)CC1; Aib = CC(C)(N)C(=O)O

Test [1] concerns the target Tumour suppressor p53/oncoprotein Mdm2 (Homo sapiens, UniProt P04637+Q00987). Description: Binding affinity to human MDM2/p53. Format: protein assay.
In test [2] the target is T1, E3 ubiquitin-protein ligase Mdm2 (Homo sapiens, UniProt Q00987). Description: Antagonist activity at human GST-tagged MDM2 assessed as inhibition of binding to full length p53.
T1 sequence (Q00987 whole entry): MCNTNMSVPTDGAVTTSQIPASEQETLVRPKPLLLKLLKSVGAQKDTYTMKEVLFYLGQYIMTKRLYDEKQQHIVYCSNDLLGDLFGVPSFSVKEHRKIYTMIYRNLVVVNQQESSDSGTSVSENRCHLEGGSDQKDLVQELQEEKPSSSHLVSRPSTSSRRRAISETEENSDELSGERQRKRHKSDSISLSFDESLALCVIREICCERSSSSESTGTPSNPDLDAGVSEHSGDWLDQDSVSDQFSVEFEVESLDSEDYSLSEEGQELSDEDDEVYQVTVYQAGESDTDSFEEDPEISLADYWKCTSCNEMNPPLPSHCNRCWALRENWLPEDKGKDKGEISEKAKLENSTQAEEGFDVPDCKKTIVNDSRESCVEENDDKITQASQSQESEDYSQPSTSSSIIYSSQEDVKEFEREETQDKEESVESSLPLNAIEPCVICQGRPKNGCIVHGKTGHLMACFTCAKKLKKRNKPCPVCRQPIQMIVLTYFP
Test [3] addresses T1, E3 ubiquitin-protein ligase Mdm2. Put plainly: Antagonist activity at human MDM2.

Sequence of Tumour suppressor p53/oncoprotein Mdm2 (P04637 whole entry): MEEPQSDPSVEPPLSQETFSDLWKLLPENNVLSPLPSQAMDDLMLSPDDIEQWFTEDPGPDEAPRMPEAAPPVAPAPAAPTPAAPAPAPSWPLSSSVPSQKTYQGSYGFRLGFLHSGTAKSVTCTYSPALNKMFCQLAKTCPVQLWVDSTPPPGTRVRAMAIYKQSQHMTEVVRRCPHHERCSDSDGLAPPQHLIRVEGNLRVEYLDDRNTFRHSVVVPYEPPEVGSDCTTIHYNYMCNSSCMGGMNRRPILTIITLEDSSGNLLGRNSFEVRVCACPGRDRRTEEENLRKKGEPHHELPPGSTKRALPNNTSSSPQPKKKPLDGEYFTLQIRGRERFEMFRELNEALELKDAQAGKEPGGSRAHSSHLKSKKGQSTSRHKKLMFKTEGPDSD
Sequence of Tumour suppressor p53/oncoprotein Mdm2 (Q00987 whole entry): as the sequence (Q00987 whole entry) above

With `CCOc1cc(C(C)(C)C)ccc1C1=N[C@@H](c2ccc(Cl)cc2)[C@@H](c2ccc(Cl)cc2)N1C(=O)N1CCN(CCCS(C)(=O)=O)CC1`, in test [1], the pKd is 7.97.

As for `CSCC[C@H](NC(=O)[C@H](Cc1ccccc1)NC(C)=O)C(=O)NC(C)(C)C(=O)N[C@@H](Cc1ccc(CP(=O)(O)O)cc1)C(=O)N[C@@H](Cc1c[nH]c2cc(Cl)ccc12)C(=O)N[C@@H](CCC(=O)O)C(=O)NC1(C(=O)N[C@@H](CC(C)C)C(N)=O)CC1` (Ac-FM[Aib][Pmp][Trp(6-Cl)]E[Ac3c]L-NH2), the pIC50 in test [2] is 8.30.

On to `CSCC[C@H](NC(=O)[C@H](Cc1ccccc1)NC(=O)[C@H](CCCN=C(N)N)NC(=O)[C@@H]1CCCN1C(=O)[C@H](CCSC)NC(C)=O)C(=O)N[C@@H](CC(=O)O)C(=O)N[C@@H](Cc1ccc(O)cc1)C(=O)N[C@@H](Cc1c[nH]c2ccccc12)C(=O)N[C@@H](CCC(=O)O)C(=O)NCC(=O)N[C@@H](CC(C)C)C(=O)N[C@@H](CC(N)=O)C(N)=O` (Ac-MPRFMDYWEGLN-NH2), for which the pIC50 in test [3] was 6.50.

In turn, `CSCC[C@H](NC(=O)[C@@H](N)Cc1ccccc1)C(=O)N[C@@H](CC(=O)O)C(=O)N[C@@H](Cc1ccc(O)cc1)C(=O)N[C@@H](Cc1c[nH]c2ccccc12)C(=O)N[C@@H](CCC(=O)O)C(=O)NCC(=O)N[C@@H](CC(C)C)C(N)=O` (H-FMDYWEGL-NH2) gave a negative-log IC50 (pIC50) in test [3] of 5.05.

Usually pKd stands for the negative decadic logarithm of the Kd, by convention in mol/L. Higher therefore signals a small Kd. What is called pIC50 is the negative decadic logarithm of the IC50, by convention in mol/L.
